Measurements taken from US20260001893A1, “SMALL MOLECULE MODULATORS OF STAT6” (Gilead Sciences, Inc., priority 2024, published 2026).
pEC50: −log10 of the molar value.

tested on: Eotaxin-3 (CCL26) release in human whole blood stimulated with IL-4; experiment: Human whole blood eotaxin-3 assay (IL-4 stimulated eotaxin-3 release); assay type: cell-based; conditions: Homo sapiens, 48 h, human whole blood stimulated with recombinant human IL-4, 48 h; given for test compounds with <80% Emax; geometric mean
Method: Human Whole Blood Eotaxin-3 Assay
This was a human whole blood assay using recombinant human Interleukin 4 to stimulate the blood and measuring the ability of the test compounds to inhibit eotaxin-3 release. The biological activities of the test compounds have been tested in human whole blood stimulated with IL-4 measuring Eotaxin-3 release. The test compounds were added to 384 well clear flat-bottom plate in a 4-fold serial dilution in triplicates using a liquid handler. Human whole blood stabilized in lithium-heparin tubes was added in a volume of 65 μL per well, resulting in a final DMSO concentration of 0.5%. The plate is incubated for 2 h at 37° C. under 5% CO2/95% air. Subsequently, 5 μL of recombinant human IL-4 (R&D Systems, cat #204-ILB) was added to the wells to a final concentration of […]. The plate was incubated for 48 h at 37° C. under 5% CO2/95% air. The plate was spun down for 10 minutes at 500×g and 20 μL supernatant was harvested and transferred to a 384 well v-bottom plate using a liquid handler and stored at −20° C. until further analysis. 10 μL supernatant was used to measure the level of Eotaxin-3 (CCL26) using Human Eotaxin-3 MSD kit from Mesocsale (Cat #K251UEK-4). The assay was performed according to the manufacture instructions.
The data from the human whole blood eotaxin-3 assay is shown below for Examples 1ab3, 1ab6, 1d23, and 1d4 (where the effect in % is plotted against the test concentration in M on a log-scale).

| Compound | Emax |
| --- | --- |
| [2H]C([2H])([2H])N(C(=O)c1ccc(C2CCN([C@@H](C)c3cc4c(-n5ncc(N)cc5=O)ccnc4n3C)CC2)cc1)C([2H])([2H])[2H] [Example 1af62, (S)-4-(1-(1-(4-(4-amino-6-oxopyridazin-1 (6H)-yl)-1-methyl-1H-pyrrolo[2,3-b]pyridin-2-yl)ethyl)piperidin-4-yl)-N,N-bis(methyl-d3)benzamide] | 20 to 30% |
| [2H]C([2H])([2H])N(C(=O)c1ccc(C2=CCN(Cc3cc4c(-n5ccc6c(c5=O)CCN6)ccnc4n3C)CC2)cc1)C([2H])([2H])[2H] [Example 1af63, N,N-Bis(methyl-d3)-4-(1-((1-methyl-4-(4-oxo-1,2,3,4-tetrahydro-5H-pyrrolo[3,2-c]pyridin-5-yl)-1H-pyrrolo[2,3-b]pyridin-2-yl)methyl)-1,2,3,6-tetrahydropyridin-4-yl)benzamide] | 30 to 40% |
| [2H]C([2H])([2H])N(C(=O)c1ccc(C2CCN(Cc3cc4c(-n5ccc(N)c(C)c5=O)ccnc4n3C)CC2)cc1)C([2H])([2H])[2H] [Example 1d22, 4-[1-[[4-(4-Amino-3-methyl-2-oxo-1-pyridyl)-1-methyl-pyrrolo[2,3-b]pyridin-2-yl]methyl]-4-piperidyl]-N,N-bis(trideuteriomethyl)benzamide] | 70 to 80% |
| [2H]C([2H])([2H])N(C(=O)c1ccc(C2CCN(Cc3cc4c(-n5ccc6c(c5=O)CCN6)ccnc4n3C)CC2)cc1)C([2H])([2H])[2H] [Example 1d24, 4-[1-[[1-Methyl-4-(4-oxo-2,3-dihydro-1H-pyrrolo[3,2-c]pyridin-5-yl)pyrrolo[2,3-b]pyridin-2-yl]methyl]-4-piperidyl]-N,N-bis(trideuteriomethyl)benzamide] | 70 to 80% |
| CN(C)C(=O)c1ccc(C2=CCN(Cc3cc4c(-n5ccc6c(c5=O)CCN6)ccnc4n3C)CC2)cn1 [Example 1m70, N,N-dimethyl-1′-((1-methyl-4-(4-oxo-1,2,3,4-tetrahydro-5H-pyrrolo[3,2-c]pyridin-5-yl)-1H-pyrrolo[2,3-b]pyridin-2-yl)methyl)-1′, 2′, 3′, 6′-tetrahydro-[3,4′-bipyridine]-6-carboxamide] | 20 to 30% |
| Cc1cc(C(=O)N(C)C)nnc1C1=CCN(Cc2cc3c(-n4ccc5c(c4=O)CCN5)ccnc3n2C)CC1 [Example 1m81, N,N,5-trimethyl-6-(1-((1-methyl-4-(4-oxo-1,2,3,4-tetrahydro-5H-pyrrolo[3,2-c]pyridin-5-yl)-1H-pyrrolo[2,3-b]pyridin-2-yl)methyl)-1,2,3,6-tetrahydropyridin-4-yl)pyridazine-3-carboxamide] | 30 to 40% |
| CN(C)C(=O)c1ccc(C2=CCN(Cc3cc4c(-n5ccc6c(c5=O)CCN6)ccnc4n3C)CC2)cc1F [Example 1m83, 2-fluoro-N,N-dimethyl-4-(1-((1-methyl-4-(4-oxo-1,2,3,4-tetrahydro-5H-pyrrolo[3,2-c]pyridin-5-yl)-1H-pyrrolo[2,3-b]pyridin-2-yl)methyl)-1,2,3,6-tetrahydropyridin-4-yl)benzamide] | 30 to 40% |

same assay, conditions: Homo sapiens, 48 h, human whole blood stimulated with recombinant human IL-4, 48 h; inhibition of eotaxin-3 release; given for test compounds with >80% Emax; geometric mean

| pEC50 | Compound |
| --- | --- |
| 7.95 | [2H]C([2H])([2H])N(C(=O)c1cc(C)c(C2=CCN(Cc3cc4c(-n5cc(F)c(N)cc5=O)ccnc4n3C)CC2)c(F)c1)C([2H])([2H])[2H] [Example 1ad11, 4-(1-((4-(4-amino-5-fluoro-2-oxopyridin-1 (2H)-yl)-1-methyl-1H-pyrrolo[2,3-b]pyridin-2-yl)methyl)-1,2,3,6-tetrahydropyridin-4-yl)-3-fluoro-5-methyl-N,N-bis(methyl-d3)benzamide] |
| 7.71 | [2H]C([2H])([2H])N(C(=O)c1ccc(C2CCN([C@@H](C)c3cc4c(-n5ccc(N)cc5=O)ccnc4n3C)CC2)cc1)C([2H])([2H])[2H] [Example 1af65, (S)-4-(1-(1-(4-(4-amino-2-oxopyridin-1 (2H)-yl)-1-methyl-1H-pyrrolo[2,3-b]pyridin-2-yl)ethyl)piperidin-4-yl)-N,N-bis(methyl-d3)benzamide] |
| 8.58 | CNc1ccn(-c2ccnc3c2cc([C@H](C)N2CC=C(c4c(C)cc(C(=O)N(C)C)cc4F)CC2)n3C)c(=O)c1 [Example 1af82, (S)-3-fluoro-N,N,5-trimethyl-4-(1-(1-(1-methyl-4-(4-(methylamino)-2-oxopyridin-1 (2H)-yl)-1H-pyrrolo[2,3-b]pyridin-2-yl)ethyl)-1,2,3,6-tetrahydropyridin-4-yl)benzamide] |
| 8.57 | [2H]C([2H])([2H])N(C(=O)c1cc(C)c(C2=CCN([C@@H](C)c3cc4c(-n5ccc(NC)cc5=O)ccnc4n3C)CC2)c(F)c1)C([2H])([2H])[2H] [Example 1af83, (S)-3-fluoro-5-methyl-N,N-bis(methyl-d3)-4-(1-(1-(1-methyl-4-(4-(methylamino)-2-oxopyridin-1 (2H)-yl)-1H-pyrrolo[2,3-b]pyridin-2-yl)ethyl)-1,2,3,6-tetrahydropyridin-4-yl)benzamide] |
| 6.83 | CNc1ccn(-c2ccnc3c2cc(CN2CCC(c4ccc(C(=O)N(C)C)cc4Cl)CC2)n3C)c(=O)c1 [Example 1d37, 3-Chloro-N,N-dimethyl-4-[1-[[1-methyl-4-[4-(methylamino)-2-oxo-1-pyridyl]pyrrolo[2,3-b]pyridin-2-yl]methyl]-4-piperidyl]benzamide] |
| 6.51 | CN(C)C(=O)c1ccc(C2CCN(Cc3cc4c(-n5ccc(N)c(C(=O)CCCO)c5=O)ccnc4n3C)CC2)cc1 [Example 1d44, 4-[1-[[4-[4-Amino-3-(4-hydroxybutanoyl)-2-oxo-1-pyridyl]-1-methyl-pyrrolo[2,3-b]pyridin-2-yl]methyl]-4-piperidyl]-N,N-dimethyl-benzamide] |
| 8.44 | CNc1ccn(-c2ccnc3c2cc(CN2CC=C(c4c(C)cc(C(=O)N(C)C)cc4F)CC2)n3C)c(=O)c1 [Example 1m56, 3-Fluoro-N,N,5-trimethyl-4-(1-((1-methyl-4-(4-(methylamino)-2-oxopyridin-1 (2H)-yl)-1H-pyrrolo[2,3-b]pyridin-2-yl)methyl)-1,2,3,6-tetrahydropyridin-4-yl)benzamide] |
| 7.57 | CNc1ccn(-c2ccnc3c2cc(CN2CC=C(c4c(C)cc(C(=O)N(C)C)cc4Cl)CC2)n3C)c(=O)c1 [Example 1m57, 3-Chloro-N,N,5-trimethyl-4-(1-((1-methyl-4-(4-(methylamino)-2-oxopyridin-1 (2H)-yl)-1H-pyrrolo[2,3-b]pyridin-2-yl)methyl)-1,2,3,6-tetrahydropyridin-4-yl)benzamide] |
| 6.50 | CNc1ccn(-c2ccnc3c2cc(CN2CC=C(c4ncc(C(=O)N(C)C)cc4C(F)(F)F)CC2)n3C)c(=O)c1 [Example 1m69, N,N-Dimethyl-6-[1-[[1-methyl-4-[4-(methylamino)-2-oxo-1-pyridyl]pyrrolo[2,3-b]pyridin-2-yl]methyl]-3,6-dihydro-2H-pyridin-4-yl]-5-(trifluoromethyl)pyridine-3-carboxamide] |
| 7.89 | [2H]C([2H])([2H])N(C(=O)c1ccc(C2CCN([C@@H](C)c3cc4c(-n5ccc(NC)cc5=O)ccnc4n3C)CC2)cc1)C([2H])([2H])[2H] [Example 1m74, (S)—N,N-bis(methyl-d3)-4-(1-(1-(1-methyl-4-(4-(methylamino)-2-oxopyridin-1 (2H)-yl)-1H-pyrrolo[2,3-b]pyridin-2-yl)ethyl)piperidin-4-yl)benzamide] |
| 7.75 | CNC(=O)c1cc(C)c(C2=CCN(Cc3cc4c(-n5ccc(NC)cc5=O)ccnc4n3C)CC2)c(F)c1 [Example 1m75, 3-fluoro-N,5-dimethyl-4-(1-((1-methyl-4-(4-(methylamino)-2-oxopyridin-1 (2H)-yl)-1H-pyrrolo[2,3-b]pyridin-2-yl)methyl)-1,2,3,6-tetrahydropyridin-4-yl)benzamide] |
| 7.58 | [2H]C([2H])([2H])N(C(=O)c1cc(C)c(C2=CCN(Cc3cc4c(-n5ccc(N)nc5=O)ccnc4n3C)CC2)c(F)c1)C([2H])([2H])[2H] [Example 1m78, 4-(1-((4-(4-amino-2-oxopyrimidin-1 (2H)-yl)-1-methyl-1H-pyrrolo[2,3-b]pyridin-2-yl)methyl)-1,2,3,6-tetrahydropyridin-4-yl)-3-fluoro-5-methyl-N,N-bis(methyl-d3)benzamide] |
| 6.88 | [2H]C([2H])([2H])N(C(=O)c1ccc(C2CCN([C@@H](C)c3cc4c(-n5cc(F)c(N)nc5=O)ccnc4n3C)CC2)cc1)C([2H])([2H])[2H] [Example 1m80, (S)-4-(1-(1-(4-(4-amino-5-fluoro-2-oxopyrimidin-1 (2H)-yl)-1-methyl-1H-pyrrolo[2,3-b]pyridin-2-yl)ethyl)piperidin-4-yl)-N,N-bis(methyl-d3)benzamide] |
| 7.74 | C[C@@H](c1cc2c(-n3ccc4c(c3=O)CCN4)ccnc2n1C)N1CCC(c2ccc(C(=O)N(C)C)cc2)CC1 [Example 1m82, (S)—N,N-dimethyl-4-(1-(1-(1-methyl-4-(4-oxo-1,2,3,4-tetrahydro-5H-pyrrolo[3,2-c]pyridin-5-yl)-1H-pyrrolo[2,3-b]pyridin-2-yl)ethyl)piperidin-4-yl)benzamide] |
| 8.43 | Cc1cc(C(=O)N(C)C)ccc1C1=CCN([C@@H](C)c2cc3c(-n4ccc(N)c(F)c4=O)ccnc3n2C)CC1 [Example 1m84, (S)-4-(1-(1-(4-(4-amino-3-fluoro-2-oxopyridin-1 (2H)-yl)-1-methyl-1H-pyrrolo[2,3-b]pyridin-2-yl)ethyl)-1,2,3,6-tetrahydropyridin-4-yl)-N,N,3-trimethylbenzamide] |
